Laboratory results taken from patent publication US20040198841A1, “Use of thiol-based compositions in ameliorating mucosal injury” (Oregon Health & Science University, priority 2003, published 2004).

Key:
[1] = Brizel DM, J Clin Oncol 2000; cited from earlier work
[2] = test system: Normal human gastric cells (NHGC); experiment: WST-1 colorometric assay, chemoprotection against BR96-dox toxicity (Example 4); type: cell-based; settings: for chemoprotection against BR96-dox toxicity: first test: drug and chemoprotectant co-incubated for 2-3 days
Procedure: Normal human gastric cells (NHGC) express high levels of the LewisY antigen recognized by the BR96 monoclonal antibody. BR-96 and BR-96-Dox toxicity was examined in NHGC to determine if toxicity could be protected against with thiol chemoprotectants.
(§1) Cytotoxicity is determined as the proportion of live cells, in comparison to untreated controls, using the WST-1 colorometric assay available from Roche Diagnostics, Indianapolis, Ind.

[3] = test system: LX-1 cells; experiment: Chemoprotection in LX-1 cells (Example 4); type: cell-based; settings: low dosages, about 0.2 to about 0.5 mg/ml
Procedure: as §1
Low dosages, about 0.2 to about 0.5 mg/ml, of NAC were protective against alkylators in LX-1 cells. NAC was 10-90% chemoprotective of NHGC at high dosages, such as from about 1-5 mg/ml.

[4] = Weight loss and diarrhea in Long Evans rats seven days after intra-arterial Cisplatin with or without i.v. NAC (Example 1); type: in vivo; settings: Cisplatin 6 mg/kg intra-arterially
Procedure: The graph shown as FIG. 1 represents the weight loss in grams in Long Evans rats seven days after administration of Cisplatin and NAC. Six mg/kg of Cisplatin was given intra-arterially either with or without intravenous (i.v.) administration of NAC at a dosage of 400 mg/kg. The NAC was administered about 15 minutes prior to the Cisplatin administration. The group without NAC consisted of 11 members. The NAC-treated group consisted of 8 members.
In the method of Example 1 for Cisplatin, the Long Evans rats were weighed, induced with isoflurane inhalant (2%+1.5% O2), intubated, placed on a respirator, and prepped for surgery. Isoflurane was then replaced with propofol (800 ug/kg/min i.v.) and a 50% nitrous/50% oxygen mixture. A ventral midline incision was made from mandible to manubrium. The left carotid bifurcation was exposed and freed, and the left external carotid artery was cannulated. NAC was then given intravenously to the treated group and intravenous saline was given to the untreated group. After 15 minutes, the left internal carotid artery was clamped, and Cisplatin (6 mg/kg) was infused through the external carotid catheter. The cannula was removed, and the skin incisions were closed using 4-0 Vicryl in a simple continuous pattern.
Seven days after Cisplatin infusion, the rats were weighed. These body weights were compared to those taken before surgery. […] This is correlated with renal failure and/or mucositis in the untreated group.

[5] = Weight loss in Long Evans rats 7 days after cisplatin to the aorta, 15 minutes after i.v. saline or NAC (Example 5); type: in vivo; settings: cisplatin 6 mg/kg via right external carotid artery cannula; NAC 400 mg/kg i.v. 15 minutes before; n=8 per group
Procedure: Before the study began, the rats were weighed to establish a baseline. Long Evans rats were treated with cisplatin 6 mg/kg delivered to the aorta via a right external carotid artery cannula 15 minutes after intravenous infusion of saline (n=8) or NAC 400 mg/kg (n=8). This procedure was preformed by the rats being induced with isoflurane inhalant (2%+1.5% oxygen), intubated, placed on a respirator and prepped for surgery. Isoflurane was then replaced with propofol (800 μg/kg/min i.v.) and a 50% nitrous/50% oxygen mixture. A ventral midline incision was made from mandible to manubrium. The right carotid bifurcation was exposed and freed, and the right external carotid artery was cannulated. NAC (400 mg/kg) was then given to the treated group (n=8) and i.v. saline was given to the untreated group (n=8). After 15 minutes, the right internal carotid artery was clamped and cisplatin (6 mg/kg) was rapidly infused through the external carotid catheter. The cannula was removed and the skin incisions were closed using 4-0 Vicryl in a simple continuous pattern. Health and well being were monitored daily post-surgery. After seven days, the animals were weighed and this value compared to the baseline.

[6] = test system: GM294 human fibroblasts; experiment: WST colorometric cytotoxicity assay, chemoprotection with or without BSO cytoenhancement (Example 3); type: cell-based; settings: NAC 1000 μg/ml added immediately after melphalan, cisplatin, carboplatin or etoposide phosphate; with or without 100 μM BSO pretreatment
Procedure: Cytotoxicity was assessed in GM294 human fibroblasts, 1×10^4 cells per well in 96 well plates, using the WST colorometric assay. Cells were pretreated with or without BSO, 100 μM for 18 hours prior to addition of chemotherapeutics (melphalan=10 μg/ml, carboplatin=100 μg/ml, cisplatin=7.5 μg/ml, etoposide phosphate 100 μg/ml) either alone (open bar), or with NAC rescue, (1000 μg/ml N-acetylcysteine, striped bar), BSO cytoenhancement (black bar), or BSO cytoenhancement and NAC rescue (cross hatched bar). Data are expressed as the percentage of live cells compared to control samples (without chemotherapy) and each point represents the mean±s.d. of 4 wells. This was also repeated with normal human gastric cells (NHGC) and gastric epithelial cells.
The fibroblast cells were either preincubated or not preincubated with 100 μM BSO for about 18-24 hours prior to addition of chemotherapy, and rescue consisted of 1000-2000 μg/ml of a thiol anti-mucosal injury agent added immediately after chemotherapy. […] Protection of epithelia cells allows for the prevention and treatment of mucositis of these tissues.

[7] = test system: LX-1 SCLC; experiment: Weight loss and survival in nude rats 12 days after intracerebral inoculation with LX-1 SCLC cells, with or without oral TMZ (Example 2); type: in vivo
Procedure: TMZ was given at a dosage of 5 mg orally, once daily, on days 6-11. There were 10 members in the untreated group and seven members in the group treated with TMZ.
For the intracerebral inoculations, the nude rats were anesthetized with a mixture of intraperitoneal ketamine (60 mg/kg) and diazepam (7.5 mg/kg). The head was shaved and scrubbed with Betadine, a midline incision made, and a 2 mm burr hole using stereotaxic coordinates was made. A 27 g needle was used for inoculation with a 100 ul Hamilton syringe, placed […] ventral to the surface, deep in the right caudate putamen. Inoculants used were LX-1 SCLC. The needle was withdrawn and the incision closed with wound clips. One group of rats received no treatment, while the other group received oral 5 mg doses of TMZ, an alkylating agent, once daily on days 6-11 after inoculation, delivered through a feeding tube while under isoflurane anesthesia. On day 12, all rats were weighed, sacrificed, and the brains removed and fixed in formalin for subsequent tumor-volume analysis.
It is believed that TMZ effects the size of any lesions in the brain. The TMZ may decrease the size of any lesions in the brain; those animals experiencing more constant or improved appetite than animals with larger tumors which experienced appetite suppression.

[8] = NAC 400 mg/kg i.v. 15 minutes prior

NCCCNCCSP(=O)(O)O [Amifostine, amifostine]
effect on mucositis in patients undergoing radiation therapy [1]: not to reduce mucositis

CCOC(=O)CNC(=O)[C@H](CS)NC(=O)CC[C@H](N)C(=O)O [GSH ethyl ester, glutathione ethyl ester]
chemoprotection against BR96-dox toxicity [2]: No chemoprotection

CC(=O)N[C@@H](CS)C(=O)O [NAC, N-acetylcysteine]
protection against alkylators in LX-1 cells [3]: protective
diarrhea, group without NAC compared to NAC treated group [4, 8]: greater diarrhea than the NAC treated group
subjective condition of untreated rats compared to NAC-treated group [4, 8]: more depressed, cachexic, and dehydrated than the NAC-treated group
loss of body weight after 7 days, group without NAC compared to NAC-treated group ([4]; NAC 400 mg/kg i.v. about 15 minutes prior, unpaired t-test p<0.0002): significantly larger loss of body weight
chemoprotective of NHGC ([2]; first test: co-incubated for 2-3 days, high dosages, about 1-5 mg/ml): 10-90%
chemoprotective, pulsed treatment ([2]; second test: 4 hour pulsed treatment with BR-96-dox and NAC): 0-20%
weight loss after 7 days compared to control [5]: less weight loss than the control
chemoprotection of fibroblast cells (percentage of live cells) [6]: protective effect

O=S([O-])([O-])=S.[Na+].[Na+] [STS, sodium thiosulfate]
chemoprotection against BR96-dox toxicity [2]: No chemoprotection

Cn1nnc2c(C(N)=O)ncn2c1=O [TMZ, Temazolamide]
subjective activity at day 12 compared to untreated group ([7]; TMZ 5 mg orally once daily on days 6-11): more active and responsive
survival to day 12 ([7]; TMZ 5 mg orally once daily on days 6-11, three rats without TMZ did not survive to day 12): all of the TMZ rats survived to day 12
loss of body weight at day 12, group without TMZ compared to group treated with TMZ ([7]; TMZ 5 mg orally once daily on days 6-11 after inoculation, unpaired t-test p<0.0041): significantly higher loss of body weight

CSCC[C@@H](N)C(=O)O [d-Methionine, D-methionine]
chemoprotection against BR96-dox toxicity [2]: No chemoprotection
